This note sets out measurements from PMC6273765, “Synthesis and Biological Evaluation of Novel Aromatic Imide-Polyamine Conjugates” (Molecules, 2016).

pIC50: −log10 of the molar value. Structures can show the parent of a compound that is named as a salt.

In one data set the test system is HCT-116 cells. The data set is described as follows: MTT cytotoxicity, HCT-116. The note with it: mean of three experiments. Type of data set: cell-based, human.
The next data set deals with HepG2 cells. Put plainly: MTT cytotoxicity, HepG2. Type of data set: cell-based, human. As to conditions: mean of three experiments.
The subject of the next data set is QSG-7701 cells. Put plainly: MTT cytotoxicity, QSG-7701 normal hepatocyte. The format is cell-based. The note with it: normal hepatocyte cell line.
A further data set has as its system K562 cells. The data set is described as follows: MTT cytotoxicity, K562. Type of data set: cell-based, human. The note with it: mean of three experiments.
In a further data set the test system is MDA-MB-231 cells. The data set is described as follows: MTT cytotoxicity, MDA-MB-231. The note with it: Homo sapiens, 48 h, mean of three experiments. Type of data set: cell-based.
A further data set deals with H22 cells. The data set is described as follows: Survival time in mice bearing H22 cells (ascites). The format is in vivo, Kunming mice. As to conditions: 11e 1 mg/kg, amonafide 5 mg/kg i.v. As to the method: Impacts of 11e on survival time in H22-bearing mice were evaluated by measuring the extension of the lifespan. The median survival time (MST) in control mice was (12.75 ± 2.5) days.
For calculation of the survival time, 30 male Kunming mice were inoculated via intraperitoneal (i.p.) injection with 1 × 10^6 H22 cells/mouse on day 0 and were randomly divided into three groups. […] The median survival time (MST) for each group was observed, and the antitumor activity of the drug was evaluated by measuring the increase of the lifespan. The extended lifespan rate was calculated as follows: extend rate (%) = (MST treated group/MST control group) × 100.

Data set [1] has as its system H22 mouse hepatocellular carcinoma. The data set is described as follows: Subcutaneous H22 solid tumor growth inhibition. Type of data set: in vivo, Kunming mice. As to conditions: 11e 1 mg/kg, amonafide 5 mg/kg. The source says:
However, few in vivo studies provided limited messages for rational design of the conjugates in comparison to the plentiful in vitro data. Indeed, there are significant discrepancies between in vitro and in vivo experiments in many cases. In vivo trials, based on preliminary in vitro screens, provide more valuable messages for further drug development. To further evaluate the antitumor activity of 11e in vivo, we chose three H22 (mice hepatoma cell line) tumor transplant models: solid tumor (tumor growth inhibition evaluation), ascites tumor (live time evaluation), and pulmonary metastasis tumor (tumor metastasis evaluation).
All animal care and experimentation conformed to the Guide for the Care and Use of Laboratory Animals published by Henan University (HUSOM2016-162). For solid tumor development, 30 male Kunming mice (Laboratory Animal Center of Henan, Zhengzhou, China) aged 5 weeks (weighing 18–22 g) were injected subcutaneously with 2 × 10^6 H22 cells. […] On day 16, the mice were killed by cervical vertebra dislocation, and solid tumors were removed and weighed. The inhibitory rate was calculated as follows: inhibitory rate (%) = [(A − B)/A] × 100, where A was the mean tumor weight of the control group and B was that of the drug treated or positive group.

Data set [2] can be described thus: Systemic toxicity (body weight, organ index). The note with it: 11e 1 mg/kg, amonafide 5 mg/kg i.v. As to the method:
However, there are few reports about the systemic toxicology of naphthalimide-polyamine conjugates to support the above hypothesis. […] At the same time, the body weight was monitored to detect the dose-limited toxicity. On day 8, these mice were killed by cervical vertebra, and the organs and tissues, including samples of heart, liver, lung, kidney, spleen and thymus, were taken for the inspection of systemic toxicity.
Mice (8 per group) received 11e (1 mg/kg) and amonfide (5 mg/kg, i.v.) for 7 consecutive days and then were sacrificed. Heart, liver, kidney, lung and spleen were removed and weighed. The organ index was investigated for systemic toxicity evaluation: organ index (%) = (organ weight/body weight) × 100.

Data set [3] concerns H22 cells lung metastasis. The data set is described as follows: H22 lung metastasis model. The note with it: 11e 1 mg/kg; for Inhibition Rate (lung metastasis): vs normal saline. Type of data set: in vivo, Kunming mice. The source says: Metastasis is the process by which tumors spread from the primary organ in which they arise to other sites in the body. In most cases, tumors that stay confined to one organ will not be fatal, tumors that have spread to other organs have a greater potential for causing harm. To test whether 11e was effective against an established lung metastasis, we injected H22 cells intravenously into 24 Kunming mice (5 × 10^6 cells each mouse). To ensure that all mice bore actively growing lung tumors before the drug treatment, pulmonary cancer was allowed to develop for 10 days.
H22 cells (5 × 10^6 cells per mouse) for Kunming mice were injected intravenous (i.v.) through the tail vein for tumor passive metastasis. To ensure all mice bore actively growing lung tumors before the drug treatment, pulmonary metastasis was allowed to develop for 10 days. […] On day 18, mice were killed by cervical vertebra dislocation, and lungs were removed and weighed, and then fixed in Bouin’s fluid. After the lungs were fixed, lung metastases nodus was numbered.

Regarding “2-{3-[4-(3-Aminopropylamino)butylamino]butyl}-6-acetyl-1H-benz[de]isoquinoline-1,3(2H)-dione trihydrochloride [5e]”, the negative logarithm of the IC50 (pIC50) in the data set with HCT-116 cells (48 h) is 4.77; in the data set on HepG2 cells (48 h), 4.66; in the data set with QSG-7701 cells (48 h), 4.56; in the data set on K562 cells (48 h), 4.91.

Turning to `CC(=O)c1ccc2c3c(cccc13)C(=O)N(CCCCNCCCCN)C2=O` [5d, 2-[(2-Dimethylamino)ethyl-[4-(4-aminobutylamino)butyl]-6-acetyl-1H-benz[de]isoquinoline-1,3(2H)-dione dihydrochloride], the negative logarithm of the IC50 (pIC50) in the data set on HCT-116 cells (Homo sapiens, HCT-116, 48 h) was 4.64; in the data set with HepG2 cells (Homo sapiens, HepG2, 48 h) it was 4.62; in the data set with QSG-7701 cells (QSG7701, 48 h) it was 4.63; in the data set on K562 cells (Homo sapiens, K562, 48 h), 4.51.

Consider `CC(=O)c1ccc2c3c(cccc13)C(=O)N(CCCCNCCCCNCCCCN)C2=O` [5f, 2-{4-[4-(4-Aminobutylamino)butylamino]butyl}-6-acetyl-1H-benz[de]isoquinoline-1,3(2H)-dione trihydrochloride], for which the negative-log IC50 (pIC50) with HCT-116 cells (Homo sapiens, HCT-116, 48 h) is 4.71; in the data set with HepG2 cells (Homo sapiens, HepG2, 48 h), 4.51; with QSG-7701 cells (QSG7701, 48 h), 4.67; with K562 cells (Homo sapiens, K562, 48 h), 4.73.

Regarding `NCCCNCC(=O)NCCCN1C(=O)c2cccc3cccc(c23)C1=O` [11a, 2-(3-Aminopropylamino)-N-(3-(1,3-dioxo-1H-benzo[de]isoquinolin-2(3H)-yl)propyl)acetamide dihydrochloride], the pIC50 with HCT-116 cells (Homo sapiens, HCT-116, 48 h) was 4.40; with HepG2 cells (Homo sapiens, HepG2, 48 h), 4.27; with QSG-7701 cells (QSG7701, 48 h), 4.41; in the data set on MDA-MB-231 cells, 4.49; in the data set with K562 cells (Homo sapiens, K562, 48 h), 4.48.

As to `NCCCNCCCNCC(=O)NCCCN1C(=O)c2cccc3cccc(c23)C1=O` [11b, 2-(3-(3-Aminopropylamino)propylamino)-N-(3-(1,3-dioxo-1H-benzo[de]isoquinolin-2(3H)-yl)propyl)acetamide trihydrochloride], the negative logarithm of the IC50 (pIC50) in the data set on HCT-116 cells (Homo sapiens, HCT-116, 48 h) was under 4.30; in the data set on HepG2 cells (Homo sapiens, HepG2, 48 h) it was under 4.30; in the data set on QSG-7701 cells (QSG7701, 48 h) it was 4.37; in the data set on MDA-MB-231 cells it was 4.78; with K562 cells (Homo sapiens, K562, 48 h) it was 4.55.

For the compound `NCCCCNCCCCNCCCCNCC(=O)NCCCN1C(=O)c2cccc3cccc(c23)C1=O` [11f, 2-(4-(4-(4-Aminobutylamino)butylamino)butylamino)-N-(3-(1,3-dioxo-1H-benzo[de]isoquinolin-2(3H)-yl)propyl)acetamide tetrahydrochloride], the pIC50 in the data set on HCT-116 cells (Homo sapiens, HCT-116, 48 h) was under 4.30; in the data set on HepG2 cells (Homo sapiens, HepG2, 48 h), under 4.30; with QSG-7701 cells (QSG7701, 48 h), 4.30; in the data set on MDA-MB-231 cells it was 4.24; in the data set on K562 cells (Homo sapiens, K562, 48 h), 4.58.

For the compound `NCCCNCCCNCCCN1C(=O)c2ccc(-c3ccccc3)cc2C1=O` [17b, 5-Phenyl-2-{3-[3-(3-aminopropylamino)-propylamino]propyl}isoindoline-1,3-dione trihydrochloride], the negative-log IC50 (pIC50) with HCT-116 cells (Homo sapiens, HCT-116, 48 h) is under 4.30; with HepG2 cells (Homo sapiens, HepG2, 48 h) it was under 4.30; with QSG-7701 cells (QSG7701, 48 h), under 4.30; in the data set on K562 cells (Homo sapiens, K562, 48 h), 4.55.

Take `NCCCNCCCCNCCCN1C(=O)c2ccc(-c3ccccc3)cc2C1=O` [17c, 5-Phenyl-2-{3-[4-(3-aminopropylamino)-amino]propyl}isoindoline-1,3-dione trihydrochloride]: the negative logarithm of the IC50 (pIC50) was under 4.30 with HCT-116 cells (Homo sapiens, HCT-116, 48 h); under 4.30 with HepG2 cells (Homo sapiens, HepG2, 48 h); under 4.30 in the data set on QSG-7701 cells (QSG7701, 48 h); under 4.30 in the data set on K562 cells (Homo sapiens, K562, 48 h).

Consider `NCCCCNCCCCNCCCCN1C(=O)c2ccc(-c3ccccc3)cc2C1=O` [17d, 5-Phenyl-2-{4-[4-(4-aminobutylamino)-butylamino]butyl}isoindoline-1,3-dione trihydrochloride], for which the pIC50 in the data set on HCT-116 cells (Homo sapiens, HCT-116, 48 h) is under 4.30; with HepG2 cells (Homo sapiens, HepG2, 48 h), under 4.30; in the data set on QSG-7701 cells (QSG7701, 48 h), under 4.30; with K562 cells (Homo sapiens, K562, 48 h), under 4.30.

`CN(C)CCN1C(=O)c2cccc3cc(N)cc(c23)C1=O` [Amonafide, amonafide, reference compound]: in the data set with H22 cells, the “life span increase vs control group” value stood at 1.53 fold. In addition, the “median survival time (MST)” value in the data set on H22 cells (7 consecutive days, control 12.75 ± 2.5 days) was determined as 19.5 ± 3.6 days. In addition, in data set [1] (caudal vein, 7 consecutive days, vs normal saline), the “Inhibition Rate (tumor weight)” value turned out to be 43.79%. Also, in data set [1] (caudal vein, 7 consecutive days, control 2.17 ± 0.22 g), the “Tumor Weight” value was 1.22 ± 0.13 g. In addition, the “No. Dead” value in data set [1] (solid tumor model) is on record as 0/9; in [3] (amonafide 5 mg/kg, lung metastasis model) it was 0/8. Further, the pIC50 in the data set on HCT-116 cells (Homo sapiens, HCT-116, 48 h) was 4.81; in the data set on HepG2 cells (Homo sapiens, HepG2, 48 h), 5.18; in the data set with QSG-7701 cells (QSG7701, 48 h), 4.26; in the data set with MDA-MB-231 cells it was 5.10; in the data set on K562 cells (Homo sapiens, K562, 48 h), 5.20. Besides, the “liver and spleen index” value in [2] (7 days, compared to controls) is reported as “obviously decreased”. Further, the body weight change entry in data set [2] (tumor-bearing mice, 7 consecutive days) was “some degree of weight loss”. Besides, the “Inhibition Rate (lung metastasis)” value in data set [3] (amonafide 5 mg/kg i.v., 7 consecutive days) worked out at 40.70%; in [3] (amonafide 5 mg/kg i.v., 7 consecutive days, listed as amonafide) it was 40.7%. Moreover, the “Metastatic Focus (No.)” value in data set [3] (amonafide 5 mg/kg i.v., 7 consecutive days, control 110.04 ± 15.38) stood at 65.25 ± 13.82.
